From PubChem BioAssay (NCI) come the findings set out here.

The structures appear in SMILES notation.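 These data come from cells grown in 96-well plates and exposed to compound for 48 hours at five concentrations. Here, GI50 denotes the concentration required for 50% inhibition of growth. TGI marks complete inhibition of growth.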

The assay concerns MDA-MB-468 breast. As to the kind of experiment: DTP human tumour cell line panel, 48 h.
As for `CCc1nn2ncccc2c1-c1ccnc(NC2CC2)n1`, the GI50 (in general, the concentration at which growth is held to half of that of the control) was above 21.2 µM and the TGI (as a rule, the concentration giving total growth inhibition) was above 25 µM.

For the molecule `COc1ccc(-c2nn3ncccc3c2-c2ccnc(Nc3ccc4c(c3)OCCO4)n2)cc1`, the GI50 is 4 µM and the total growth inhibition concentration (TGI) is above 21.1 µM.

As to `COc1ccc(-c2nsc3c2NC(=O)CC3c2cccc(Cl)c2)cc1` (stereo not drawn), the GI50 was 0.735 µM and the TGI worked out at 11 µM.

`Cc1noc(C)c1-c1cnc2c(-c3ccc(C(=O)O)cc3)cn([C@@H](C)c3ccccn3)c2c1`: the GI50 was 0.309 µM and the TGI came to 27.2 µM.

As to `CCCCN1C(=O)/C(=c2\sc3n(c2=O)C2C(NN=3)N(CC)C(=O)N2CC)c2ccccc21` (stereo not drawn), the 50% growth inhibitory concentration (GI50) was 0.361 µM and the TGI came to 2.39 µM.

As for `CC(=O)O[C@H](C[C@H](C(C)C)N(C)C(=O)[C@@H](NC(=O)[C@H]1CCCCN1C)C(C)C)c1cccc(C(=O)N[C@@H](Cc2ccccc2)C[C@H](C)C(=O)O)n1`, the GI50 was 0.00539 µM and the TGI worked out at 0.102 µM.

`Cn1cc(C2=C(c3ccccc3C(F)(F)F)C(=O)NC2=O)c2ccccc21`: the GI50 is 11.6 µM and the TGI was above 25 µM.

As for `COc1ccc2[nH]c(C(=O)OCc3ccc4cccc(O)c4n3)cc2c1`, the GI50 was 1.37 µM and the TGI was 3.08 µM.

`NC(CSC(c1ccccc1)(c1ccccc1)c1ccc(F)cc1)C(=O)O` (stereo not drawn): the GI50 is 0.233 µM.

Turning to `CCc1nc2cc(/C=C/C(=O)NO)ccc2c(=O)n1CCc1ccc(OC)cc1`, the GI50 was 1.69 µM and the concentration for total growth inhibition (TGI) was determined as 5.57 µM.

With `COc1cc(-c2cc3ncccc3c3[nH]c(=O)c4cccnc4c23)cc(OC)c1OC`, the GI50 is 1.61 µM and the TGI was 96.1 µM.

On to `O=C(Oc1ccccc1)C(Br)C(Br)c1ccccc1` (stereo not drawn), for which the GI50 is 1.61 µM and the TGI is 3.37 µM.

For `CC(C)(C)c1nc(-c2cccc(NS(=O)(=O)c3c(F)cccc3F)c2F)c(-c2ccnc(N)n2)s1`, the GI50 was 31.7 µM and the TGI was above 100 µM.

For `Cc1c(C)c2c(c(C)c1OCC(=O)O)CC[C@@](C)(CCC[C@@H](C)CCC[C@@H](C)CCCC(C)C)O2`, the GI50 is 58.1 µM and the TGI amounted to 152 µM.

In the case of `COc1cccc(NC(=O)c2sc3nc4c(cc3c2N)C(O)CCC4)c1` (stereo not drawn), the GI50 is 0.0881 µM and the concentration for total growth inhibition (TGI) amounted to 6.7 µM.

`O=C(/C=C\n1cnc(-c2cc(C(F)(F)F)cc(C(F)(F)F)c2)n1)N1CC(F)(F)C1`: the GI50 was 0.697 µM and the concentration for total growth inhibition (TGI) was 6.19 µM.

In the case of `CCN(CC)c1ccc(/C=N/NC(=O)CSc2nc3ccccc3c(=O)n2Cc2ccc(S(N)(=O)=O)cc2)c(O)c1`, the GI50 was 0.524 µM and the total growth inhibition concentration (TGI) was determined as 5.03 µM.

Regarding `COc1ccc(-c2n[nH]nc2-c2cc(OC)c3c(c2)OCO3)cc1`, the GI50 was 0.023 µM and the TGI stood at 42.6 µM.

As for `COc1cc(NC(C)CCCNC(C)C)c2ncccc2c1OC` (stereo not drawn), the GI50 is 25.6 µM and the total growth inhibition concentration (TGI) is above 100 µM.

Turning to `O=C(CSc1nc2sc3c(c2c(=O)n1-c1ccc(Cl)cc1)CCCC3)NNC(=O)Nc1cccc(C(F)(F)F)c1`, the GI50 is 2.21 µM and the concentration for total growth inhibition (TGI) turned out to be 5.36 µM.

For `COc1cc(Nc2ncnc(Nc3ccc4c(n3)NC(=O)C(C)(C)O4)n2)cc(OC)c1OC`, the GI50 is 0.522 µM and the TGI was above 100 µM.

For the molecule `C[C@H](NC(=O)c1c(C(F)F)nn(C)c1Oc1cccc(C(F)(F)F)c1)c1ccc(C(=O)O)cc1`, the GI50 was above 100 µM and the total growth inhibition concentration (TGI) is above 100 µM.

Regarding `COc1cc(CN(c2ccc(C)cc2)C2OC(=O)c3ccccc32)cc(OC)c1OC` (stereo not drawn), the GI50 was 0.132 µM and the TGI came out at 0.527 µM.

For the molecule `CCOc1ccc(C(C)=O)cc1NC(=O)c1cccc(-c2nnn(CC)n2)c1`, the GI50 is 0.557 µM and the total growth inhibition concentration (TGI) was 6.07 µM.

With `O=C(O)Cn1ccc2ccccc21`, the GI50 is above 100 µM and the TGI is above 100 µM.

Take `CCOC(=O)C#Cc1c(C(=O)OCC)nnn1[C@@H]1O[C@H](CO)[C@H]2OC3(CCCCC3)O[C@H]21`: the GI50 was 1.78 µM and the TGI worked out at 3.89 µM.

With `C=C1C(=O)O[C@H]2[C@H]1CC/C(COC(=O)NCCc1cccc(OC)c1)=C\CC[C@@]1(C)O[C@@H]21`, the GI50 was 0.85 µM and the TGI came out at 3.27 µM.

As to `Nc1ccc(-c2ccc3ncc4ccc(=O)n(-c5cccc(C(F)(F)F)c5)c4c3c2)cn1`, the 50% growth inhibitory concentration (GI50) is below 0.01 µM and the TGI amounted to 0.0431 µM.

In the case of `Cc1nc(Sc2nc3ccc([N+](=O)[O-])cc3s2)sc1C`, the GI50 was 1.62 µM and the TGI was determined as 3.59 µM.

As for `CN1CCN(CCCOc2cccc3nc(Nc4ccc(F)c(F)c4)ccc23)CC1`, the GI50 was 2.11 µM and the TGI amounted to 6.73 µM.

Take `Oc1c(O)c(Cl)c(Cl)c(Cl)c1Cl`: the GI50 was 2.58 µM and the TGI worked out at 7.34 µM.

In the case of `COc1cc2nc(-c3cccc4cccnc34)nc(NC3CCN(Cc4ccccc4)CC3)c2cc1OC`, the GI50 was 1.43 µM and the total growth inhibition concentration (TGI) turned out to be 2.96 µM.

For `NCCOc1ncccc1/C=C1\c2ccccc2-c2ccc([N+](=O)[O-])cc21`, the 50% growth inhibitory concentration (GI50) is 0.0712 µM and the concentration for total growth inhibition (TGI) was 0.351 µM.

Turning to `CC/C(Cc1ccccc1)=C(/c1ccc(O)cc1)c1ccc(OCCN2CCCC2)cc1`, the GI50 is 1.66 µM and the total growth inhibition concentration (TGI) amounted to 3.28 µM.

As for `O=C1Nc2ccccc2/C1=C/c1cn(CC(O)Cn2cc(/C=C3\C(=O)Nc4ccccc43)c3ccccc32)c2ccccc12` (stereo not drawn), the GI50 was 2.03 µM and the TGI came out at 3.75 µM.

For the molecule `CCCCCCNC(=O)Oc1ccc(/C(=C(\C)c2ccc(Cl)cc2)c2ccc(OCCN(C)C)cc2)cc1`, the GI50 was 1.59 µM and the TGI was 3.12 µM.

As to `O=C(/C=C/c1cc(Cl)ccc1Cl)Nc1ncc(Cc2ccc(Cl)cc2)s1`, the GI50 is 0.277 µM and the TGI came out at 3.08 µM.

Consider `Cn1cncc1-c1c(F)cncc1NC(=O)c1c(N)nn2cc(F)cnc12`, for which the GI50 is 1.96 µM and the TGI turned out to be 16.2 µM.

`COc1ccc2c(c1)O/C(=C\c1cccc(OCC(=O)Nc3nc(C)c(C)s3)c1)C2=O`: the GI50 is 0.274 µM and the concentration for total growth inhibition (TGI) amounted to 2.12 µM.

For `COc1cc(-c2nccc3cc4c(cc23)OCO4)cc(OC)c1OC`, the GI50 was 1.62 µM and the concentration for total growth inhibition (TGI) is 6.24 µM.

`O=C(Nc1ccc2c(c1)OCCO2)C(=O)c1c[nH]c2ccccc12`: the GI50 is 1.09 µM and the TGI was 20.7 µM.

As for `CCN(CC)c1ccc2nc3ccc(N=Nc4ccc(O)cc4)cc3[n+](-c3ccccc3)c2c1`, the GI50 was 1.47 µM and the TGI was determined as 3.61 µM.
